Data on 2 compounds can be found in patent US20230228744A1, “DRY EYE DISEASE BIOMARKERS AND THEIR USE FOR TREATMENT” (Aldeyra Therapeutics, Inc., priority 2020, published 2023).

This experiment can be described thus: Exploratory aldehyde trapping studies in PBS and ACN/H2O (MS). It is filed as biochemical. To be noted: 10 μM aldehyde, 1 mM trapping reagent, PBS or 50/50 ACN/H2O. Here is the method:
Semicarbazide (SCZ), glutathione (GSH), cysteine, and N-acetyl cysteine were used as trapping agents with the aldehydes 4-hydroxynonenal (4-HNE), malondialdehyde, acetaldehyde, hexanal, pentanal, and decanal. 10 μM of aldehyde was mixed with 1 mM of trapping reagent in either PBS or 50/50 ACN/H2O.

`NNC(N)=O` [semicarbazide, Semicarbazide]: the “trapping effectiveness, comparison of trapping agents” value was “more effective than GSH” and the “trapping of aldehydes as judged by MS” value is on record as “appeared to trap aldehydes”. On to `N[C@@H](CCC(=O)N[C@@H](CS)C(=O)NCC(=O)O)C(=O)O` [glutathione], for which the “trapping of aldehydes as judged by MS” value is recorded as “appeared to trap aldehydes”.
